Measured values: ChEMBL document CHEMBL1909046, “DrugMatrix in vitro pharmacology data”

Molecular target: Matrix metalloproteinase-9 (Homo sapiens, UniProt P14780);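 further: inhibition of isolated MMP-9 enzyme activity toward a synthetic peptide substrate, from the DrugMatrix protease screening panel; in other assays of this panel Not Active means under 50% inhibition at 10 µM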
Assay type: cell-based
Settings: not given

Matrix metalloproteinase-9, sequence (P14780 whole entry): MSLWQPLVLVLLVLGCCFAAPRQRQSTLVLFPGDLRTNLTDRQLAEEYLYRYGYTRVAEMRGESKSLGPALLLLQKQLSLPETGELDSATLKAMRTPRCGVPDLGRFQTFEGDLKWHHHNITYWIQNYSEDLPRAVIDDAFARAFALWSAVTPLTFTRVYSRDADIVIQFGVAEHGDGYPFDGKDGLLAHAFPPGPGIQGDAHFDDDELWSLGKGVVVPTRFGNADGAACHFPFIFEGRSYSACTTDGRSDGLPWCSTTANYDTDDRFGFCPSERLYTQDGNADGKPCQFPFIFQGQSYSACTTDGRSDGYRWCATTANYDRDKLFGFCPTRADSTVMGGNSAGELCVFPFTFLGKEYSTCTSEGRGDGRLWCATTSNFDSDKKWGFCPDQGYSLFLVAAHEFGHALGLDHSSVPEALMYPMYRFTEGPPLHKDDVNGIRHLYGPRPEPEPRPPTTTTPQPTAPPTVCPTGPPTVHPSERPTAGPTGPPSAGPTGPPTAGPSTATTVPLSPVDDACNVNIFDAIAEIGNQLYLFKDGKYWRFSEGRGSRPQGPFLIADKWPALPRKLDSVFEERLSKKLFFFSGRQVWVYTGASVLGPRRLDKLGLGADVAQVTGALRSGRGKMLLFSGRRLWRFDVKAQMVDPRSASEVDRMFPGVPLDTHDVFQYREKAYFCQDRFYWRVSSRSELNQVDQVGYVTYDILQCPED

| Compound | IC50 | Ki |
| --- | --- | --- |
| CCN(CC)N=O [N-NITROSODIETHYLAMINE] | Not Active |  |
| CNCCCC12CCC(c3ccccc31)c1ccccc12 [MAPROTILINE] | Not Active |  |
| CN(C)CCC=C1c2ccccc2COc2ccccc21 [DOXEPIN] | Not Active |  |
| CCC(C)(C)C(=O)O[C@H]1C[C@@H](C)C=C2C=C[C@H](C)[C@H](CC[C@@H]3C[C@@H](O)CC(=O)O3)[C@H]21 [SIMVASTATIN] | Not Active |  |
| CN1C[C@H](CNC(=O)OCc2ccccc2)C[C@@H]2c3cccc4c3c(cn4C)C[C@H]21 [METERGOLINE] | Not Active |  |
| Cc1[nH]c(=O)c(C#N)cc1-c1ccncc1 [MILRINONE] | Not Active |  |
| O=[As][O-].[Na+] [SODIUM ARSENITE] | Not Active |  |
| CCOC(=O)C1=C(C)NC(C)=C(C(=O)OCC)C1c1ccccc1/C=C/C(=O)OC(C)(C)C [LACIDIPINE] | Not Active |  |
| CC#C[C@]1(O)CC[C@H]2[C@@H]3CCC4=CC(=O)CCC4=C3[C@@H](c3ccc(N(C)C)cc3)C[C@@]21C [MIFEPRISTONE] | Not Active |  |
| CCOc1cc(N)c(Cl)cc1C(=O)NCC1CN(Cc2ccc(F)cc2)CCO1 (stereo not given) [MOSAPRIDE] | Not Active |  |
| CC(Cl)(Cl)Cl [TRICHLOROETHANE] | Not Active |  |
| LEAD(IV) ACETATE | Not Active | Not Active |

Molecular target: Mu-type opioid receptor (Homo sapiens, UniProt P35372)
Sequence (P35372 whole entry): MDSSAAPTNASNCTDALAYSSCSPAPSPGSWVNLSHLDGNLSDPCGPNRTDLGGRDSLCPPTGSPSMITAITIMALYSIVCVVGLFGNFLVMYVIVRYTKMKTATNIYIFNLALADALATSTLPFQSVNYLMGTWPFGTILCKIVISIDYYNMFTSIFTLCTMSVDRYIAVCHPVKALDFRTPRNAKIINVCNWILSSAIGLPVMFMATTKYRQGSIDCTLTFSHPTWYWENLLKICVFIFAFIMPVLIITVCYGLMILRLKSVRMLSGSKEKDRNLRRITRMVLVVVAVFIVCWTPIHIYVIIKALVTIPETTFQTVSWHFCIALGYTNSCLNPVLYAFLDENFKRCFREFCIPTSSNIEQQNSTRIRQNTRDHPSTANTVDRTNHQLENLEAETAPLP
Experiment: DRUGMATRIX: Opiate mu (OP3, MOP) radioligand binding (ligand: [3H] Diprenorphine)
Assay type: cell membranes, CHO-K1, Membrane
Settings: cho-k1; Not Active = under 50% inhibition at 10 µM

| Compound | IC50 |
| --- | --- |
| CNCCCC12CCC(c3ccccc31)c1ccccc12 [MAPROTILINE] | Not Active |
| CN(C)CCC=C1c2ccccc2COc2ccccc21 [DOXEPIN] | Not Active |
| CCC(C)(C)C(=O)O[C@H]1C[C@@H](C)C=C2C=C[C@H](C)[C@H](CC[C@@H]3C[C@@H](O)CC(=O)O3)[C@H]21 [SIMVASTATIN] | Not Active |
| CN1C[C@H](CNC(=O)OCc2ccccc2)C[C@@H]2c3cccc4c3c(cn4C)C[C@H]21 [METERGOLINE] | Not Active |
| Cc1[nH]c(=O)c(C#N)cc1-c1ccncc1 [MILRINONE] | Not Active |
| CCOC(=O)C1=C(C)NC(C)=C(C(=O)OCC)C1c1ccccc1/C=C/C(=O)OC(C)(C)C [LACIDIPINE] | Not Active |
| CCOc1cc(N)c(Cl)cc1C(=O)NCC1CN(Cc2ccc(F)cc2)CCO1 (stereo not given) [MOSAPRIDE] | Not Active |

Molecular target: T1, Adenosine receptor A3 (Homo sapiens, UniProt P0DMS8);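 further: radioligand binding assay with AB-MECA serving as the labeled ligand; in other assays of this panel Not Active means under 50% inhibition at 10 µM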
T1 sequence (P0DMS8 whole entry): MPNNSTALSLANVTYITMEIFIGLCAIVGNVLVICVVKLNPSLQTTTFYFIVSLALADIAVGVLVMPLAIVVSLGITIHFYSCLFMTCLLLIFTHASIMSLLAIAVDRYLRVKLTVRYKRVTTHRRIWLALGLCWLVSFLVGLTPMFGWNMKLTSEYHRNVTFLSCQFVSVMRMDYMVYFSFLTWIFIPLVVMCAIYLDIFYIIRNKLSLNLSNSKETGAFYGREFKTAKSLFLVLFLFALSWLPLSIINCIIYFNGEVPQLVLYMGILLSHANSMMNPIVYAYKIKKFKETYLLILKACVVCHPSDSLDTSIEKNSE
Assay type: cell membranes, CHO-K1, Membrane
Settings: cho-k1

| Compound | IC50 | Ki |
| --- | --- | --- |
| CCN(CC)N=O [N-NITROSODIETHYLAMINE] | Not Active |  |
| CNCCCC12CCC(c3ccccc31)c1ccccc12 [MAPROTILINE] | Not Active |  |
| CN(C)CCC=C1c2ccccc2COc2ccccc21 [DOXEPIN] | Not Active |  |
| CCC(C)(C)C(=O)O[C@H]1C[C@@H](C)C=C2C=C[C@H](C)[C@H](CC[C@@H]3C[C@@H](O)CC(=O)O3)[C@H]21 [SIMVASTATIN] | Not Active |  |
| CN1C[C@H](CNC(=O)OCc2ccccc2)C[C@@H]2c3cccc4c3c(cn4C)C[C@H]21 [METERGOLINE] | Not Active |  |
| Cc1[nH]c(=O)c(C#N)cc1-c1ccncc1 [MILRINONE] | Not Active |  |
| O=[As][O-].[Na+] [SODIUM ARSENITE] | Not Active |  |
| CC#C[C@]1(O)CC[C@H]2[C@@H]3CCC4=CC(=O)CCC4=C3[C@@H](c3ccc(N(C)C)cc3)C[C@@]21C [MIFEPRISTONE] | Not Active |  |
| CCOc1cc(N)c(Cl)cc1C(=O)NCC1CN(Cc2ccc(F)cc2)CCO1 (stereo not given) [MOSAPRIDE] | Not Active |  |
| CC(Cl)(Cl)Cl [TRICHLOROETHANE] | Not Active |  |
| LEAD(IV) ACETATE | Not Active | Not Active |

Same assay, conditions: read-out: IC50

| Compound | IC50 [µM] |
| --- | --- |
| CCOC(=O)C1=C(C)NC(C)=C(C(=O)OCC)C1c1ccccc1/C=C/C(=O)OC(C)(C)C [LACIDIPINE] | 4.04 |

Same assay, conditions: read-out: Ki

| Compound | Ki [µM] |
| --- | --- |
| CCOC(=O)C1=C(C)NC(C)=C(C(=O)OCC)C1c1ccccc1/C=C/C(=O)OC(C)(C)C [LACIDIPINE] | 2.28 |

Molecular target: Cytochrome P450 2C19 (Homo sapiens, UniProt P33261); further: in other assays of this panel Not Active means under 50% inhibition at 10 µM
Sequence (P33261 whole entry): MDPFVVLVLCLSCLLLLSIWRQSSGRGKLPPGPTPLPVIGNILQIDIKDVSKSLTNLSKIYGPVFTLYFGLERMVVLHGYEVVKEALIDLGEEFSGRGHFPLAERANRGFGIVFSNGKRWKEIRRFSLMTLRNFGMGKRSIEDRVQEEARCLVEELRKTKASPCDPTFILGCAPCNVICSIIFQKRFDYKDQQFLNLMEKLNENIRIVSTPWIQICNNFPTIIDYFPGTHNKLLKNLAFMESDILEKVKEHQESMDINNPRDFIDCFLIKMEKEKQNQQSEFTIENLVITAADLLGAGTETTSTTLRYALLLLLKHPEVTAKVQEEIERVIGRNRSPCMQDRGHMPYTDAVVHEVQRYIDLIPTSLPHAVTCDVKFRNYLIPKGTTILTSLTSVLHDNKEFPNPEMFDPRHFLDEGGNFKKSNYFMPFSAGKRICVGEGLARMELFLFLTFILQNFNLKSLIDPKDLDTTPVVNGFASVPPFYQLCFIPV
Settings: bti-tn-5b1-4

| Compound | IC50 | Ki |
| --- | --- | --- |
| CCN(CC)N=O [N-NITROSODIETHYLAMINE] | Not Active | Not Active |
| CN(C)CCC=C1c2ccccc2COc2ccccc21 [DOXEPIN] | Not Active | Not Active |
| O=[As][O-].[Na+] [SODIUM ARSENITE] | Not Active | Not Active |
| CC#C[C@]1(O)CC[C@H]2[C@@H]3CCC4=CC(=O)CCC4=C3[C@@H](c3ccc(N(C)C)cc3)C[C@@]21C [MIFEPRISTONE] | Not Active | Not Active |
| CC(Cl)(Cl)Cl [TRICHLOROETHANE] | Not Active | Not Active |
| LEAD(IV) ACETATE | Not Active | Not Active |

Molecular target: Voltage-gated inwardly rectifying potassium channel KCNH2 (Homo sapiens, UniProt Q12809); further: in other assays of this panel Not Active means under 50% inhibition at 10 µM
Sequence (Q12809 whole entry): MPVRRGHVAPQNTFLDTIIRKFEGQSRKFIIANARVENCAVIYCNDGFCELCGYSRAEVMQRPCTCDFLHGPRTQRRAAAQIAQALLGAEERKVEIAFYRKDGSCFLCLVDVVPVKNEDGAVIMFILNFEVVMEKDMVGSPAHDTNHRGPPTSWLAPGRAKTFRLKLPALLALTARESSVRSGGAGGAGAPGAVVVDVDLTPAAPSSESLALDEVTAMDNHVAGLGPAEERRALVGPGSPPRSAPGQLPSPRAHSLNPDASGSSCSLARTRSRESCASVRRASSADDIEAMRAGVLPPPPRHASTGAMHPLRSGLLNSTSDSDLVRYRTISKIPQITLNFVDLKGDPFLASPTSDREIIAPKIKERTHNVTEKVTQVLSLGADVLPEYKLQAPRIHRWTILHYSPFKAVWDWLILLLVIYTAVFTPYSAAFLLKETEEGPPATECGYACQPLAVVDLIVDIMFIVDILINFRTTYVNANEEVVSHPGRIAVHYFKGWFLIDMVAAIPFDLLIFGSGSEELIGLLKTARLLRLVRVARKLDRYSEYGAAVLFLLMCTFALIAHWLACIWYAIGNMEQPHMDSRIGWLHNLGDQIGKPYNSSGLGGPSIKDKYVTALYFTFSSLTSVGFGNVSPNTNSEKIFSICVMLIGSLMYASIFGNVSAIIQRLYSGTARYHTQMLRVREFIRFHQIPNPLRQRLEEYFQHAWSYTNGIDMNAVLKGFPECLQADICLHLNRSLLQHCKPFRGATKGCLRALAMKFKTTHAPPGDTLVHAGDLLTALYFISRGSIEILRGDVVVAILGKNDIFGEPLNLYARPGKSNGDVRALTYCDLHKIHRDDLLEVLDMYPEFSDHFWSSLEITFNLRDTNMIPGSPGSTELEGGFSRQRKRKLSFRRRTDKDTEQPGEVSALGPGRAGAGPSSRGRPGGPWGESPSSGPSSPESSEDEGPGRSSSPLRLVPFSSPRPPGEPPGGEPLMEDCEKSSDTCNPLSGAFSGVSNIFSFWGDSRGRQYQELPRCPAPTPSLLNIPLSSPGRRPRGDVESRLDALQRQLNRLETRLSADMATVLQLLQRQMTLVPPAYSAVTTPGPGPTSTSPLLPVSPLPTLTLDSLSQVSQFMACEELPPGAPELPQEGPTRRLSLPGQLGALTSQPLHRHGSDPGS
Settings: hek293

| Compound | IC50 | Ki |
| --- | --- | --- |
| CCN(CC)N=O [N-NITROSODIETHYLAMINE] | Not Active | Not Active |
| CNCCCC12CCC(c3ccccc31)c1ccccc12 [MAPROTILINE] | Not Active | Not Active |
| CN(C)CCC=C1c2ccccc2COc2ccccc21 [DOXEPIN] | Not Active | Not Active |
| CN1C[C@H](CNC(=O)OCc2ccccc2)C[C@@H]2c3cccc4c3c(cn4C)C[C@H]21 [METERGOLINE] | Not Active | Not Active |
| O=[As][O-].[Na+] [SODIUM ARSENITE] | Not Active | Not Active |
| CCOC(=O)C1=C(C)NC(C)=C(C(=O)OCC)C1c1ccccc1/C=C/C(=O)OC(C)(C)C [LACIDIPINE] | Not Active | Not Active |
| CCOc1cc(N)c(Cl)cc1C(=O)NCC1CN(Cc2ccc(F)cc2)CCO1 (stereo not given) [MOSAPRIDE] | Not Active | Not Active |
| CC(Cl)(Cl)Cl [TRICHLOROETHANE] | Not Active | Not Active |
| LEAD(IV) ACETATE | Not Active | Not Active |

Molecular target: Protein kinase C alpha type (Homo sapiens, UniProt P17252)
Assay type: cell-based
Settings: sf9

| Compound | IC50 | Ki |
| --- | --- | --- |
| CCN(CC)N=O [N-NITROSODIETHYLAMINE] | Not Active |  |
| CNCCCC12CCC(c3ccccc31)c1ccccc12 [MAPROTILINE] | Not Active |  |
| CN(C)CCC=C1c2ccccc2COc2ccccc21 [DOXEPIN] | Not Active |  |
| CCC(C)(C)C(=O)O[C@H]1C[C@@H](C)C=C2C=C[C@H](C)[C@H](CC[C@@H]3C[C@@H](O)CC(=O)O3)[C@H]21 [SIMVASTATIN] | Not Active |  |
| CN1C[C@H](CNC(=O)OCc2ccccc2)C[C@@H]2c3cccc4c3c(cn4C)C[C@H]21 [METERGOLINE] | Not Active |  |
| Cc1[nH]c(=O)c(C#N)cc1-c1ccncc1 [MILRINONE] | Not Active |  |
| O=[As][O-].[Na+] [SODIUM ARSENITE] | Not Active |  |
| CCOC(=O)C1=C(C)NC(C)=C(C(=O)OCC)C1c1ccccc1/C=C/C(=O)OC(C)(C)C [LACIDIPINE] | Not Active |  |
| CC#C[C@]1(O)CC[C@H]2[C@@H]3CCC4=CC(=O)CCC4=C3[C@@H](c3ccc(N(C)C)cc3)C[C@@]21C [MIFEPRISTONE] | Not Active |  |
| CCOc1cc(N)c(Cl)cc1C(=O)NCC1CN(Cc2ccc(F)cc2)CCO1 (stereo not given) [MOSAPRIDE] | Not Active |  |
| CC(Cl)(Cl)Cl [TRICHLOROETHANE] | Not Active |  |
| LEAD(IV) ACETATE | Not Active | Not Active |

Test system: not listed separately
Experiment: DRUGMATRIX: Glutamate, NMDA, Phencyclidine radioligand binding (ligand: [3H] TCP)
Assay type: cell membranes, Rattus norvegicus, Wistar, Cerebral cortex, Membrane
Settings: Not Active = under 50% inhibition at 10 µM

| Compound | IC50 | Ki |
| --- | --- | --- |
| CCN(CC)N=O [N-NITROSODIETHYLAMINE] | Not Active | Not Active |
| CCC(C)(C)C(=O)O[C@H]1C[C@@H](C)C=C2C=C[C@H](C)[C@H](CC[C@@H]3C[C@@H](O)CC(=O)O3)[C@H]21 [SIMVASTATIN] | Not Active | Not Active |
| CN1C[C@H](CNC(=O)OCc2ccccc2)C[C@@H]2c3cccc4c3c(cn4C)C[C@H]21 [METERGOLINE] | Not Active | Not Active |
| Cc1[nH]c(=O)c(C#N)cc1-c1ccncc1 [MILRINONE] | Not Active | Not Active |
| O=[As][O-].[Na+] [SODIUM ARSENITE] | Not Active | Not Active |
| CCOC(=O)C1=C(C)NC(C)=C(C(=O)OCC)C1c1ccccc1/C=C/C(=O)OC(C)(C)C [LACIDIPINE] | Not Active | Not Active |
| CC#C[C@]1(O)CC[C@H]2[C@@H]3CCC4=CC(=O)CCC4=C3[C@@H](c3ccc(N(C)C)cc3)C[C@@]21C [MIFEPRISTONE] | Not Active | Not Active |
| CCOc1cc(N)c(Cl)cc1C(=O)NCC1CN(Cc2ccc(F)cc2)CCO1 (stereo not given) [MOSAPRIDE] | Not Active | Not Active |
| CC(Cl)(Cl)Cl [TRICHLOROETHANE] | Not Active | Not Active |
| LEAD(IV) ACETATE | Not Active | Not Active |

Molecular target: T2, C-X-C chemokine receptor type 1 (Homo sapiens, UniProt P25024); further: in other assays of this panel Not Active means under 50% inhibition at 10 µM
T2 sequence (P25024 whole entry): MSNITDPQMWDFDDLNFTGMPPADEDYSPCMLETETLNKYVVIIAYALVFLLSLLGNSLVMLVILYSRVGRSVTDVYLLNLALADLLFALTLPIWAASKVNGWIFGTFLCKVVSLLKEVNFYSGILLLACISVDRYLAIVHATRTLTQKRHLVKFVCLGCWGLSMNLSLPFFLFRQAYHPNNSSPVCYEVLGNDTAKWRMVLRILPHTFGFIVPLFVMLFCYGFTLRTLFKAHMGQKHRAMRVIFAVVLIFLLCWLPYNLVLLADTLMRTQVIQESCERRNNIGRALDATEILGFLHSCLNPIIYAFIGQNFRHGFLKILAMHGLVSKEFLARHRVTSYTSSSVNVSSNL
Settings: not given

| Compound | IC50 | Ki |
| --- | --- | --- |
| CCN(CC)N=O [N-NITROSODIETHYLAMINE] | Not Active |  |
| CNCCCC12CCC(c3ccccc31)c1ccccc12 [MAPROTILINE] | Not Active |  |
| CN(C)CCC=C1c2ccccc2COc2ccccc21 [DOXEPIN] | Not Active |  |
| CCC(C)(C)C(=O)O[C@H]1C[C@@H](C)C=C2C=C[C@H](C)[C@H](CC[C@@H]3C[C@@H](O)CC(=O)O3)[C@H]21 [SIMVASTATIN] | Not Active |  |
| CN1C[C@H](CNC(=O)OCc2ccccc2)C[C@@H]2c3cccc4c3c(cn4C)C[C@H]21 [METERGOLINE] | Not Active |  |
| Cc1[nH]c(=O)c(C#N)cc1-c1ccncc1 [MILRINONE] | Not Active |  |
| O=[As][O-].[Na+] [SODIUM ARSENITE] | Not Active |  |
| CCOC(=O)C1=C(C)NC(C)=C(C(=O)OCC)C1c1ccccc1/C=C/C(=O)OC(C)(C)C [LACIDIPINE] | Not Active |  |
| CC#C[C@]1(O)CC[C@H]2[C@@H]3CCC4=CC(=O)CCC4=C3[C@@H](c3ccc(N(C)C)cc3)C[C@@]21C [MIFEPRISTONE] | Not Active |  |
| CCOc1cc(N)c(Cl)cc1C(=O)NCC1CN(Cc2ccc(F)cc2)CCO1 (stereo not given) [MOSAPRIDE] | Not Active |  |
| CC(Cl)(Cl)Cl [TRICHLOROETHANE] | Not Active |  |
| LEAD(IV) ACETATE | Not Active | Not Active |
